For series [1], the system named is peripheral blood mononuclear cells (PBMCs). As to the kind of experiment: NASBA ratio of mitochondrial DNA to chromosomal DNA in cultured PBMCs. In kind it is cell-based. The settings on record: culture period of five days, 6 μM and 60 μM. The method, then:
In Table 1, the primers and probes used in the examples are summarized. Standard NASBA nucleic acid amplification reactions were performed in a 20 μl reaction volume and contained: 40 mM Tris-pH 8.5, 70 mM KCl, 12 mM MgCl2, 5 mM dithiothreitol, 1 mM dNTPs (each), 2 mM rNTPs (each), 0.2 μM primer (each), 0.05 μM molecular beacon, 375 mM sorbitol, 0.105 μg/μl bovine serum albumin, 6.4 units AMV RT, 32 units T7 RNA polymerase, 0.08 units RNAse H and input nucleic acid. The complete mixture, except the enzymes, sorbitol and/or bovine serum albumin was, prior to adding the enzyme mixture, heated to 65° C. for two minutes in order to denature any secondary structure in the RNA and to allow the primers to anneal. After cooling the mixture to 41° C., the enzymes were added. The amplification took place at 41° C. for 90 minutes in a fluorimeter (CytoFluor 2000) and the fluorescent signal was measured every minute (using the filter set 530/25 nm and 485/30 nm). […]
To achieve quantification, a dilution series of target sequences for a particular primer set was amplified and the time points at which the reactions became positive (the time to positivity, TTP) were plotted against the input amounts of nucleic acid. This way a calibration curve was created that could be used to read TTP values of reactions with unknown amounts of input and deduce the input amount. […]

Series [2] relates to Fibroblasts. The series is described as follows: One-tube duplex NASBA ratio of mitochondrial RNA and chromosomal DNA in fibroblasts cultured with ddC. In kind it is cell-based. On the procedure:
In this example, the NASBA nucleic acid amplification reactions for DNA target sequences were performed in a 20 μl reaction volume and contained: 40 mM Tris-pH 8.5, 70 mM KCl, 12 mM MgCl2, 5 mM dithiotreitol, 1 mM dNTPs (each), 2 mM rNTPs (each), 0.2 μM primer (each), 0.05 μM molecular beacon, 1.5 units restriction enzyme Msp I, 375 mM sorbitol, 0.105 μg/μl bovine serum albumin, 6.4 units AMV RT, 32 units T7 RNA polymerase, 0.08 units RNAse H and input nucleic acid. The complete mixture, except the enzymes sorbitol and bovine serum albumin, was, prior to adding the enzyme mixture, incubated at 37° C. for 25 minutes and subsequently heated to 95° C. for two minutes in order to denature the DNA and to allow the primers to anneal. After cooling the mixture to 41° C., the enzyme mixture was added. The amplification took place at 41° C. for 90 minutes in a fluorimeter (CytoFluor 2000) and the fluorescent signal was measured every minute (using the filter set 530/25 nm and 485/30 nm). To achieve quantification, a dilution series of target sequence for a particular primer set was amplified and the time points at which the reactions became positive (the time to positivity, TTP) were plotted against the input amounts of nucleic acid. This way a calibration curve was created that could be used to read TTP values of reactions with unknown amounts of input and deduce the input amount. […] After five days, the cells were harvested and analyzed for an amount of chromosomal DNA (primers SnrpD p1 and SnrpD2 p2 and probe SnrpD mb) with the described NASBA protocol in the chapter “Used ingredients and general methodology” and compared with the NASBA protocol as described in this example. […]
Different ratios of mitochondrial RNA target and chromosomal DNA target in a plasmid were analyzed in this example: 2×10^3 U1a DNA/5×10^4 Mt RNA, 2×10^3 U1a DNA/2.5×10^5 Mt RNA, 2×10^3 U1a DNA/5×10^5 Mt RNA, 2×10^3 U1a DNA/2.5×10^6 Mt RNA, 2×10^3 U1a DNA/5×10^6 Mt RNA, 2×10^3 U1a DNA/10^7 Mt RNA, 2×10^3 U1a DNA/2.5×10^7 Mt RNA molecules were included. […]

Each structure is given as a SMILES string.

On to `Cc1cn([C@H]2C[C@H](N=[N+]=[N-])[C@@H](CO)O2)c(=O)[nH]c1=O` [AZT], for which the “change in ratio of mitochondrial DNA to chromosomal DNA” value in series [1] was “no measurable change”.
In the case of `Nc1ccn([C@H]2CC[C@@H](CO)O2)c(=O)n1` [ddC], the “amount of mitochondrial RNA in continued culture in the absence of ddC” value in series [2] (ddC 30 μM eight weeks, then without ddC (week 10, 12, 14 and 16)) is “clear rebound”. Besides, the “amount of mitochondrial RNA in continued culture in the presence of ddC” value in series [2] (ddC 30 μM, after week eight, another eight weeks) is “remains very low”. The “mitochondrial RNA of fibroblasts in the presence of ddC” value in series [2] (ddC 30 μM, eight weeks, FIG. 23) is recorded as “lose their mitochondrial RNA”.

The values are drawn from patent publication US20050208549A1, “Testing endosymbiont cellular organelles and compounds identifiable therewith” (priority 2000, published 2005).
